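Compound exposure: 48 hours, 5 concentrations, 96-well plates. GI50 is the concentration that inhibits growth by half.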 Active and inactive are the calls of the source. No stated cut-off is given here; in the data, active = GI50 up to about 1.1 µM and inactive = higher.
Columns and labels:
Assay in all cases: growth of human tumour cells (NCI), 48 h
[1] = tested on: HCC 2998
[2] = tested on: SN12C
[3] = tested on: SF-539
[4] = tested on: LOX IMVI
[5] = tested on: HOP-92
[6] = tested on: NCI-H23
[7] = tested on: TK-10
[8] = tested on: KM12
[9] = tested on: RPMI-8226
[10] = tested on: HOP-62
[11] = tested on: COLO 205
[12] = tested on: Hs-578T
[13] = tested on: 786-0
[14] = tested on: K562
[15] = tested on: OVCAR-3
[16] = tested on: SF-295
[17] = tested on: SK-MEL-2
[18] = tested on: RXF 393
[19] = tested on: MDA-N

Nc1ccc2nc(-c3cccc(C(F)(F)F)c3)cc(O)c2c1
GI50 [1]: 60.1 µM (inactive) | GI50 [2]: 61.8 µM (inactive) | GI50 [3]: 19.6 µM (inactive) | GI50 [4]: 51.9 µM (inactive) | GI50 [5]: > 100 µM (inactive) | GI50 [6]: 54.6 µM (inactive) | GI50 [7]: 58.2 µM (inactive) | GI50 [8]: 36.2 µM (inactive) | GI50 [9]: 38.5 µM (inactive) | GI50 [10]: 47.2 µM (inactive) | GI50 [11]: 27.2 µM (inactive) | GI50 [12]: 28.9 µM (inactive) | GI50 [13]: 44.7 µM (inactive)

COc1cccc(Nc2nc(-c3cccs3)nc3cc(OC)c(OC)cc23)c1
GI50 [14]: 37.1 µM (inactive) | GI50 [2]: 21.3 µM (inactive) | GI50 [3]: 20.9 µM (inactive) | GI50 [5]: 25 µM (inactive) | GI50 [6]: 32.4 µM (inactive) | GI50 [7]: 33.4 µM (inactive) | GI50 [8]: 30.4 µM (inactive) | GI50 [9]: 13.2 µM (inactive) | GI50 [10]: 27.8 µM (inactive) | GI50 [15]: 24.3 µM (inactive) | GI50 [11]: 23.2 µM (inactive) | GI50 [16]: 23.4 µM (inactive) | GI50 [17]: 35.8 µM (inactive) | GI50 [12]: 27.4 µM (inactive) | GI50 [13]: 21.9 µM (inactive)

Cc1cc2c(cc1Cl)SC(NNCCO)=NS2(=O)=O
GI50 [1]: > 100 µM (inactive) | GI50 [14]: 56.2 µM (inactive) | GI50 [3]: > 100 µM (inactive) | GI50 [4]: > 100 µM (inactive) | GI50 [5]: > 100 µM (inactive) | GI50 [6]: > 100 µM (inactive) | GI50 [7]: > 100 µM (inactive) | GI50 [8]: > 100 µM (inactive) | GI50 [9]: > 100 µM (inactive) | GI50 [18]: > 100 µM (inactive) | GI50 [10]: > 100 µM (inactive) | GI50 [11]: > 100 µM (inactive) | GI50 [16]: > 100 µM (inactive) | GI50 [17]: > 100 µM (inactive) | GI50 [12]: > 100 µM (inactive) | GI50 [13]: > 100 µM (inactive)

C/C(=C\COP(=O)(O)OP(=O)(O)O)CCCCCCOCc1ccccc1
GI50 [1]: > 100 µM (inactive) | GI50 [14]: > 100 µM (inactive) | GI50 [2]: > 100 µM (inactive) | GI50 [3]: > 100 µM (inactive) | GI50 [4]: > 100 µM (inactive) | GI50 [5]: > 100 µM (inactive) | GI50 [6]: > 100 µM (inactive) | GI50 [7]: > 100 µM (inactive) | GI50 [8]: > 100 µM (inactive) | GI50 [9]: > 100 µM (inactive) | GI50 [18]: > 100 µM (inactive) | GI50 [10]: > 100 µM (inactive) | GI50 [15]: > 100 µM (inactive) | GI50 [11]: > 100 µM (inactive) | GI50 [16]: > 100 µM (inactive) | GI50 [12]: > 100 µM (inactive) | GI50 [13]: > 100 µM (inactive)

COc1cc(/C=C/C(=O)c2ccc(NS(=O)(=O)c3cc([N+](=O)[O-])ccc3C)cc2)cc(OC)c1OC
GI50 [14]: 2.88 µM (inactive) | GI50 [2]: 1.87 µM (inactive) | GI50 [3]: 2.18 µM (inactive) | GI50 [4]: 3.29 µM (inactive) | GI50 [5]: 2.98 µM (inactive) | GI50 [6]: 3.05 µM (inactive) | GI50 [7]: 3.96 µM (inactive) | GI50 [8]: 2.62 µM (inactive) | GI50 [9]: 1.96 µM (inactive) | GI50 [18]: 2.81 µM (inactive) | GI50 [10]: 2.99 µM (inactive) | GI50 [15]: 3.15 µM (inactive) | GI50 [19]: 3.62 µM (inactive) | GI50 [11]: 4.26 µM (inactive) | GI50 [16]: 4.61 µM (inactive) | GI50 [17]: 2.67 µM (inactive) | GI50 [13]: 2.74 µM (inactive)

Cc1cc(C)n2c(nc3ccccc32)c1C#N
GI50 [1]: > 100 µM (inactive) | GI50 [14]: > 100 µM (inactive) | GI50 [2]: > 100 µM (inactive) | GI50 [3]: > 100 µM (inactive) | GI50 [4]: > 100 µM (inactive) | GI50 [5]: 22.4 µM (inactive) | GI50 [6]: > 100 µM (inactive) | GI50 [7]: > 100 µM (inactive) | GI50 [18]: > 100 µM (inactive) | GI50 [15]: > 100 µM (inactive) | GI50 [19]: > 100 µM (inactive) | GI50 [11]: > 100 µM (inactive) | GI50 [16]: > 100 µM (inactive) | GI50 [17]: > 100 µM (inactive) | GI50 [13]: > 100 µM (inactive)

Oc1ccc(/C=N/NC(=S)Nc2cccnc2)nc1
GI50 [1]: > 51.1 µM (inactive) | GI50 [14]: 3.99 µM (inactive) | GI50 [2]: 6.93 µM (inactive) | GI50 [3]: 4.49 µM (inactive) | GI50 [4]: 3.26 µM (inactive) | GI50 [5]: 5.38 µM (inactive) | GI50 [6]: 8.15 µM (inactive) | GI50 [8]: 6.71 µM (inactive) | GI50 [9]: 16.7 µM (inactive) | GI50 [10]: 12 µM (inactive) | GI50 [15]: 1.07 µM (active) | GI50 [19]: 13.4 µM (inactive) | GI50 [11]: 3.98 µM (inactive) | GI50 [16]: 19.9 µM (inactive) | GI50 [17]: 7.08 µM (inactive) | GI50 [13]: 8.43 µM (inactive)

CC(=O)CCC(=O)CC(O)(C(F)(F)F)C(F)(F)F
GI50 [1]: 18.4 µM (inactive) | GI50 [14]: 15.3 µM (inactive) | GI50 [2]: 20.9 µM (inactive) | GI50 [3]: 16.6 µM (inactive) | GI50 [5]: 13.6 µM (inactive) | GI50 [6]: 21.2 µM (inactive) | GI50 [7]: 22.6 µM (inactive) | GI50 [8]: 15.9 µM (inactive) | GI50 [9]: 17.2 µM (inactive) | GI50 [18]: 18.6 µM (inactive) | GI50 [10]: 17.9 µM (inactive) | GI50 [11]: 17.9 µM (inactive) | GI50 [16]: 12.4 µM (inactive) | GI50 [12]: 14.6 µM (inactive) | GI50 [13]: 16.2 µM (inactive)

C[N+](C)=C/C=C(\Cl)c1ccc2ccccc2c1
GI50 [1]: 6.37 µM (inactive) | GI50 [14]: 5.04 µM (inactive) | GI50 [2]: 19.1 µM (inactive) | GI50 [3]: 25.1 µM (inactive) | GI50 [4]: 4.33 µM (inactive) | GI50 [5]: 21 µM (inactive) | GI50 [6]: 5.98 µM (inactive) | GI50 [7]: 16.3 µM (inactive) | GI50 [8]: 15 µM (inactive) | GI50 [9]: 2.89 µM (inactive) | GI50 [18]: 16.5 µM (inactive) | GI50 [10]: 17.8 µM (inactive) | GI50 [15]: 6.24 µM (inactive) | GI50 [11]: 19.2 µM (inactive) | GI50 [16]: 16.9 µM (inactive) | GI50 [17]: 25.2 µM (inactive) | GI50 [12]: 32.4 µM (inactive) | GI50 [13]: 13.1 µM (inactive)

CCOC(=O)c1cc(I)c(-c2cc(C)no2)n1C
GI50 [14]: 26.8 µM (inactive) | GI50 [2]: 21.5 µM (inactive) | GI50 [3]: > 100 µM (inactive) | GI50 [4]: 37.3 µM (inactive) | GI50 [5]: 36.4 µM (inactive) | GI50 [6]: 44.1 µM (inactive) | GI50 [7]: > 100 µM (inactive) | GI50 [8]: 21.1 µM (inactive) | GI50 [9]: 19.3 µM (inactive) | GI50 [18]: 15.4 µM (inactive) | GI50 [15]: 38.4 µM (inactive) | GI50 [19]: 43.9 µM (inactive) | GI50 [11]: 42.4 µM (inactive) | GI50 [16]: 55.7 µM (inactive) | GI50 [17]: > 100 µM (inactive) | GI50 [13]: 43.5 µM (inactive)

N#Cc1c(-c2ccco2)cc(-c2ccc(N)cc2)[nH]c1=O
GI50 [1]: > 100 µM (inactive) | GI50 [14]: > 100 µM (inactive) | GI50 [2]: > 100 µM (inactive) | GI50 [3]: > 100 µM (inactive) | GI50 [4]: > 100 µM (inactive) | GI50 [5]: > 100 µM (inactive) | GI50 [6]: > 100 µM (inactive) | GI50 [7]: > 100 µM (inactive) | GI50 [8]: > 100 µM (inactive) | GI50 [9]: > 100 µM (inactive) | GI50 [18]: > 100 µM (inactive) | GI50 [10]: > 100 µM (inactive) | GI50 [15]: > 100 µM (inactive) | GI50 [16]: > 100 µM (inactive) | GI50 [13]: > 100 µM (inactive)

COc1ccc(C[C@@H](C(=O)O[C@H](C)[C@H](NC(=O)[C@@H](CC(C)C)N(C)C(=O)C2CCCN2C(=O)[C@H](C)O)C(=O)N2CCCCNC(=O)[C@@H](C)C(=O)[C@H](C(C)C)OC(=O)C[C@H](O)[C@H]2CC(C)C)N(C)C(C)=O)cc1 (stereo not given in full)
GI50 [1]: 9.33 µM (inactive) | GI50 [14]: 8.05 µM (inactive) | GI50 [2]: 15.2 µM (inactive) | GI50 [3]: 5.18 µM (inactive) | GI50 [5]: 15 µM (inactive) | GI50 [6]: 10.3 µM (inactive) | GI50 [7]: 38.5 µM (inactive) | GI50 [8]: 4.89 µM (inactive) | GI50 [9]: 9.08 µM (inactive) | GI50 [18]: 5.2 µM (inactive) | GI50 [10]: 13.4 µM (inactive) | GI50 [15]: 14 µM (inactive) | GI50 [11]: 6.82 µM (inactive) | GI50 [16]: 10.1 µM (inactive) | GI50 [17]: 17.7 µM (inactive) | GI50 [12]: 4.11 µM (inactive) | GI50 [13]: 12.4 µM (inactive)

Reference: ChEMBL document CHEMBL1201862, “PubChem BioAssay data set” (2004)
